Measurements as given in patent publication US20240390383A1, “DIOXAZINES AND THEIR USE IN TREATMENT OF GBA-RELATED DISEASES” (ZEVRA DENMARK A/S, priority 2021, published 2024).
Several values for one entry are separate records, joined by “and”; a condition that tells them apart may be missing. Equal entries are not always repeated.

Biological target: T1, GCase (GBA) in human fibroblast cell line GM10915 harboring the L444P GBA mutation (Homo sapiens, UniProt P04062, L483P)
T1 construct: Human fibroblast cell line GM10915 harboring the L444P GBA mutation; host or cells: GM10915 human fibroblasts
T1 sequence (P04062 40-536 L483P): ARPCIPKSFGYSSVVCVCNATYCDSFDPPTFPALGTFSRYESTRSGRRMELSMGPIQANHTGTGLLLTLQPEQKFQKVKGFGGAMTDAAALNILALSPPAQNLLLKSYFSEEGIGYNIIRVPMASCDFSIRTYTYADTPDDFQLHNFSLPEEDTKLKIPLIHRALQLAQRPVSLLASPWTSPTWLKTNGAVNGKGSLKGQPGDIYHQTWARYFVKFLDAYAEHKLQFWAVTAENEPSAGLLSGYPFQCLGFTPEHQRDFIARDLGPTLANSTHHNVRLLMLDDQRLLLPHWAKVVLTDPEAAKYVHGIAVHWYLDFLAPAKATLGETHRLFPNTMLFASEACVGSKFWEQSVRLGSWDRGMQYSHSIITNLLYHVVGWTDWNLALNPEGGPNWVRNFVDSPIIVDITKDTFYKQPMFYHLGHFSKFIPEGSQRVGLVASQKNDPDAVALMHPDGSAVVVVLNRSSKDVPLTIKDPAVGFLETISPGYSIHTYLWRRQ
Experiment: GCase activity assay (4-MUG substrate, normalised to crystal violet staining) in L444P GBA fibroblasts
Type: cell-based
Conditions: 5 days exposure; for GBA EC1.5: concentration giving 150% GCase activity (1.5-fold induction), 8-point dose range
Method: Human fibroblast cell line GM10915 harboring the L444P GBA mutation was obtained from Coriell Biorepositories.
All chemicals (Glacial acetic acid, Glycine, 4-Methylumbelliferyl b-D-glucopyranoside (4-MUG), Sodium acetate trihydrate, Sodium hydroxide, Crystal violet, SDS, Ammonium hydroxide) were obtained from Sigma-Aldrich (Denmark) Compounds tested for GCase activity were dissolved in H2O or DMSO.
The GM10915 cell line was cultured under standard cell culture conditions (37° C. and 5% CO2) in complete DMEM medium supplemented with nonessential amino acids (NEAA), 1% Pen-Strep and 12% FCS. Cells were seeded at a density of 10^4 cells/well in 100 μL complete medium in one black 96-well plate for glucosylceramidase (GCase) activity measurement and in one clear 96-well plate for crystal violet staining to correct for cell density. Crystal violet staining is performed to obtain quantitative information about the relative density of cells adhering to multi-wells plates.
The assay was adapted from Sawkar et al (2002) and briefly described in the following. The day after seeding of cells, the medium was replaced with fresh medium containing the compounds to be tested. Compounds were tested in duplicate and in an 8-point diluted dose range to obtain a dose response. Cells were exposed with compounds for five days. Fresh compound was added every 2-3 days. PBS was included to define the basal level of GCase activity.
Cells were washed three times with 200 μL PBS per well and 50 μL of 2.5 mM 4-MUG buffer (4-MUG dissolved in 0.2 M acetate buffer pH 4.0) was added and the cells were incubated at 37° C., 5% CO2 for 23 hours. The reaction was stopped by adding 150 μL 0.2 M glycine buffer (pH 10.8). Fluorescence was measured with a Varioskan® Flash reader (Thermo Scientific) at an excitation/emission setting of 365/445 nm.
Cells were treated with compounds in a parallel setup identical to the setup to test for GCase activity. At the end of compound treatment, cells were washed once with 200 μL PBS per well and 50 μL 0.1% w/v crystal violet (in H2O) was added. Following 10 min. of incubation, the crystal violet solution was removed, and the cells were washed three times with 200 μL PBS and 100 μL 1% SDS was added to solubilize the stain. The plate was agitated on an orbital shaker for 10-30 min. Absorbance (A) is measured at […] using a Varioskan® Flash reader (Thermo Scientific).
The fluorescence signal (F) derived from the GCase measurement is normalized to the absorbance signal (A) derived from the crystal violet staining. The percent GCase activity resulting from compound treatment is calculated relative to the basal activity obtained from untreated cells.
Maximal effect of compounds (Emax) is determined from the dose response effects as the maximum “Percent GCase activity” achieved in the dose range tested.

[1] = maximum percent GCase activity relative to untreated cells in the dose range tested

| SMILES | GBA EC1.5 | GBA Emax [1] | Emax [1] [%] |
| --- | --- | --- | --- |
| C1CCN(C[C@@H]2CON=C([C@]34CCC[C@H]3NCC4)O2)CC1 (relative stereo) [compound 589, (rel-R)-3-((rel-trans-3aS,6aR)-hexahydrocyclopenta[b]pyrrol-3a(1H)-yl)-5-(piperidin-1-ylmethyl)-5,6-dihydro-1,4,2-dioxazine] | 4 µM and 5 µM | 216% and 272% | – |
| C[C@@H]1ON=C(C2(C)CCNCC2)O[C@H]1CN1CCCCC1 [compound 887] | 5 µM | – | 233 |
| CC1(C2=NOCC(CN3CCCCC3)O2)CCNCC1 (single isomer, unassigned) [compound 567] | 7 µM | – | 296 |
| Fc1cccc(C2(C3=NOCC(CN4CCCCC4)O3)CCCNC2)n1 (stereo not drawn) [compound 598] | 1 µM | – | 179 |
| CC(C)N1CCCC(C2=NOCC(CN3CCCCC3)O2)C1 (racemic) [compound 709, rac-3-(1-isopropylpiperidin-3-yl)-5-(piperidin-1-ylmethyl)-5,6-dihydro-1,4,2-dioxazine] | 22 µM | – | 178 |
| O=C1CCC(C2=NOCC(CN3CCCCC3)O2)CN1 (stereo not drawn) [compound 617] | 50 µM | – | 113 |
| C1CCN(CC2CON=C(C3CC4CNCC3O4)O2)CC1 (stereo not drawn) [compound 862] | 15 µM | – | 212 |
| N[C@H]1CN[C@@H](C2=NOCC(CN3CCCCC3)O2)C1 (stereo partly drawn) [compound 564] | 50 µM | – | 104 |
| CC1ON=C(C2CCN(C(C)C)C2)OC1CN1CCCCC1 (racemic) [compound 621, rac-3-(1-isopropylpyrrolidin-3-yl)-6-methyl-5-(piperidin-1-ylmethyl)-5,6-dihydro-1,4,2-dioxazine] | 10 µM | – | 276 |
| c1cnc(N2CCC(C3=NOCC(CN4CCCCC4)O3)C2)nc1 (stereo not drawn) [compound 693] | 50 µM | – | 112 |
| CNC(=O)CN1CCCC(C2=NOCC(CN3CCCCC3)O2)C1 (racemic) [compound 721, rac-N-methyl-2-(3-(5-(piperidin-1-ylmethyl)-5,6-dihydro-1,4,2-dioxazin-3-yl)piperidin-1-yl)acetamide] | 33 µM | – | 175 |
| COC1(C2=NOCC(CN3CCCCC3)O2)CCNC1 (racemic) [compound 606, rac-3-(3-methoxypyrrolidin-3-yl)-5-(piperidin-1-ylmethyl)-5,6-dihydro-1,4,2-dioxazine] | 20 µM | – | 292 |
| CN1CC(C2=NOCC(CN3CCCCC3)N2)CC1=O (stereo not drawn) [compound 601] | 50 µM | – | 111 |
| Cn1ncc(CC2(C3=NOCC(CN4CCCCC4)O3)CCNCC2)n1 (stereo not drawn) [compound 507] | 35 µM | – | 149 |
| O[C@@H]1CC[C@@H](C2=NOCC(CN3CCCCC3)O2)C1 (stereo partly drawn) [compound 704] | 50 µM | – | 117 |
| NC(=O)N1CCC(C2=NOCC(CN3CCCCC3)O2)C1 (stereo not drawn) [compound 697] | 50 µM | – | 107 |
| O=C1CC(C2=NOCC(CN3CCCCC3)O2)CCN1 (stereo not drawn) [compound 649] | 50 µM | – | 103 |
| COCCC1(C2=NOCC(CN3CCCCC3)O2)CCN(C)C1 (racemic) [compound 701, rac-3-(3-(2-methoxyethyl)-1-methylpyrrolidin-3-yl)-5-(piperidin-1-ylmethyl)-5,6-dihydro-1,4,2-dioxazine] | 21 µM | – | 225 |

| SMILES | GBA EC1.5 | GBA Emax [1] | Emax [1] [%] |
| --- | --- | --- | --- |
| NC1CCC(C2=NOCC(CN3CCCCC3)O2)CC1 (racemic) [compound 611, rac-4-(5-(piperidin-1-ylmethyl)-5,6-dihydro-1,4,2-dioxazin-3-yl)cyclohexan-1-amine] | 26 µM | – | 299 |
| C1CCN(CC2CON=C(C3CCNC3)O2)CC1 (racemic) [compound 508, rac-5-(piperidin-1-ylmethyl)-3-(pyrrolidin-3-yl)-5,6-dihydro-1,4,2-dioxazine] | 17 µM | – | 226 |
| C1CCN(CC2CON=C(CC3CNCCO3)O2)CC1 (stereo not drawn) [compound 863] | 6 µM | – | 253 |
| CN1CC2(C1)CN(CC1CON=C(C3(C)CCNCC3)O1)C2 (stereo not drawn) [compound 580] | 50 µM | – | 105 |
| CN1CCN(CCC2=NOCC(CN3CCCCC3)O2)CC1 (racemic) [compound 823, rac-3-(2-(4-methylpiperazin-1-yl)ethyl)-5-(piperidin-1-ylmethyl)-5,6-dihydro-1,4,2-dioxazine] | 18 µM | – | 312 |
| C1CCN(CC2CON=C(C3(C4CCOCC4)CCNC3)O2)CC1 (racemic) [compound 583, rac-5-(piperidin-1-ylmethyl)-3-(3-(tetrahydro-2H-pyran-4-yl)pyrrolidin-3-yl)-5,6-dihydro-1,4,2-dioxazine] | 14 µM | – | 188 |
| CN(C)C(=O)N1CCC(C2=NOCC(CN3CCCCC3)O2)C1 (stereo not drawn) [compound 675] | 50 µM | – | 102 |
| c1csc(N2CCC(C3=NOCC(CN4CCCCC4)O3)CC2)n1 (stereo not drawn) [compound 635] | 50 µM | – | 135 |
| CN1CCN(CC2CON=C(C3(Cc4cccnc4)CCNCC3)O2)CC1 (stereo not drawn) [compound 686] | 50 µM | – | 97 |
| C1CCN(CCC2=NOC[C@@H](CN3CCCCC3)O2)CC1 [compound 890] | 8 µM | – | 168 |
| NCC(=O)N1CCC(C2=NOCC(CN3CCCCC3)O2)CC1 (racemic) [compound 787, rac-2-amino-1-(4-(5-(piperidin-1-ylmethyl)-5,6-dihydro-1,4,2-dioxazin-3-yl)piperidin-1-yl)ethan-1-one] | 42 µM | – | 193 |
| COCCC1(C2=NOCC(CN3CCCCC3)O2)CCNCC1 (racemic) [compound 726, rac-3-(4-(2-methoxyethyl)piperidin-4-yl)-5-(piperidin-1-ylmethyl)-5,6-dihydro-1,4,2-dioxazine] | 8 µM | – | 269 |
| C1CCN(CC2CON=C([C@]34CCN[C@H]3CCOC4)O2)CC1 (relative stereo) [compound 462, rac-rel-trans(3aR,7aS)-3a-(5-(piperidin-1-ylmethyl)-5,6-dihydro-1,4,2-dioxazin-3-yl)octahydropyrano[4,3-b]pyrrole di-2,2,2-trifluoroacetate] | 9 µM | – | 241 |
| NC(=O)N1CCCC(C2=NOCC(CN3CCCCC3)O2)C1 (stereo not drawn) [compound 717] | 50 µM | – | 111 |
| c1ncn2c1CC(C1=NOCC(CN3CCCCC3)O1)CC2 (racemic) [compound 655, rac-5-(piperidin-1-ylmethyl)-3-(5,6,7,8-tetrahydroimidazo[1,5-a]pyridin-7-yl)-5,6-dihydro-1,4,2-dioxazine] | 8 µM | – | 232 |
| CN1CCCC(C(C)(C)C2=NOCC(CN3CCCCC3)O2)C1 (racemic) [compound 595, rac-3-(2-(1-methylpiperidin-3-yl)propan-2-yl)-5-(piperidin-1-ylmethyl)-5,6-dihydro-1,4,2-dioxazine] | 6 µM | – | 172 |
| OC1CCC(C2=NOCC(CN3CCCCC3)O2)CC1 (stereo not drawn) [compound 609] | 50 µM | – | 119 |
| COC1CN(C)CC1C1=NOCC(CN2CCCCC2)O1 (racemic) [compound 821, rac-3-(4-methoxy-1-methylpyrrolidin-3-yl)-5-(piperidin-1-ylmethyl)-5,6-dihydro-1,4,2-dioxazine] | 29 µM | – | 213 |
